According to patent publication US20240109881A1, “Heteroaryl Compounds as Ligand Directed Degraders of IRAK4” (Bristol-Myers Squibb Company, priority 2022, published 2024):

Molecular target: T1, IRAK4 (Homo sapiens, UniProt Q9NWZ3)
T1 construct: endogenous in cells; host or cells: THP-1 cells
T1 sequence (Q9NWZ3 1-460): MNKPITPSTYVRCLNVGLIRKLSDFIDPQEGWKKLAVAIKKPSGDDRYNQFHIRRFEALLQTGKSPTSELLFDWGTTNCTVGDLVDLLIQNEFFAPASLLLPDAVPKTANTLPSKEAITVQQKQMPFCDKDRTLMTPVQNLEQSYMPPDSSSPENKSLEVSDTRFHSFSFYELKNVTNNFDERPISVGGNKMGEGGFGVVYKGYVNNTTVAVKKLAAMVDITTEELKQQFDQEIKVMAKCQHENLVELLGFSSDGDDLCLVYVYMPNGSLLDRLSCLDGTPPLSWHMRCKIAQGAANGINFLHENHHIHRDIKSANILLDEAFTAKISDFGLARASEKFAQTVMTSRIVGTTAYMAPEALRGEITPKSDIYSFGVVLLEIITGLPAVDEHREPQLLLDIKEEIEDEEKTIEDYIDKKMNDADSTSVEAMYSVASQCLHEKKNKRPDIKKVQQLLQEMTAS
Experiment: LVL THP1 HTRF (THP1 Homogeneous Time Resolved Fluorescence)
Format: cell-based
Settings: THP1 cells, 18 h incubation with compound; for DC50: read-out: LVL THP1 HTRF EC50
Outline: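 THP-1 cells in phenol red-free RPMI with 10% FBS were dosed with compound (20 nL in DMSO) for 18 h at 37° C. After 2 h lysis, IRAK4 was detected with anti-IRAK4-d2/anti-IRAK4-K HTRF antibodies for 18 h at room temperature and read at 665/615 nm; a parallel CTG plate was run.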

Structure (SMILES)	DC50 [nM]	LVL THP1 HTRF YMIN [%]
C[C@H](C#N)Nc1cc(-n2ncc3cc(C#N)cnc32)ncc1-c1ncn([C@H]2CC[C@H](CCN3CCN(c4ccc(C5CCC(=O)NC5=O)cc4)CC3)CC2)n1 (stereo partly shown) [P-224]	60	
C[C@H](C#N)Nc1cc(-n2ncc3cncnc32)ncc1-n1cc(C2CCC(CCN3CCN(c4ccc([C@@]5(C)CCC(=O)NC5=O)cc4)CC3)CC2)nn1 (stereo partly shown) [P-225]		3.5
C[C@H](C#N)Nc1cc(-n2ncc3cncnc32)ncc1-n1cc([C@H]2CC[C@H](CCN3CCN(c4ccc([C@@]5(C)CCC(=O)NC5=O)cc4)CC3)CC2)nn1 [P-225]	133	
C[C@H](C#N)Nc1cc(-n2ncc3cc(C#N)cnc32)ncc1-n1cc([C@H]2CC[C@](O)(CCN3CCN(c4ccc(C5CCC(=O)NC5=O)cc4)CC3)CC2)nn1 (stereo partly drawn) [P-226, 1-(4-(((R)-1-cyanoethyl)amino)-5-(4-(4-(2-(4-(4-(2,6-dioxopiperidin-3-yl)phenyl)piperazin-1-yl)ethyl)-4-hydroxycyclohexyl)-1H-1,2,3-triazol-1-yl)pyridin-2-yl)-1H-pyrazolo[3,4-b]pyridine-5-carbonitrile]	5	2.1
C[C@H](C#N)Nc1cc(-n2ncc3cc(C#N)cnc32)ncc1-n1cc(C2CCC(O)(CCN3CCN(c4ccc(C5CCC(=O)NC5=O)cc4)CC3)CC2)nn1 (stereo partly shown) [P-227]	2	3.0
C[C@H](C#N)Nc1cc(-n2ncc3cnc(N)nc32)ncc1-n1cc([C@H]2CC[C@H](CCN3CCN(c4ccc(C5CCC(=O)NC5=O)cc4)CC3)CC2)nn1 (stereo partly shown) [P-231]	1	
C[C@]1(c2ccc(N3CCN(CCC4CCC(c5cn(-c6cnc(-n7ncc8cc(C#N)cnc87)cc6NC6(C#N)CC6)nn5)CC4)CC3)cc2)CCC(=O)NC1=O (stereo partly shown) [P-234]		3.1

Now from value to compound:

DC50 [nM]	LVL THP1 HTRF YMIN [%]	Structure (SMILES)
7		C[C@H](C#N)Nc1cc(-n2ncc3cc(C#N)c(N)nc32)ncc1-n1cc([C@H]2CC[C@H](CCN3CCN(c4ccc([C@@]5(C)CCC(=O)NC5=O)cc4)CC3)CC2)nn1 [P-222]
< 1	2.1	C[C@H](C#N)Nc1cc(-n2ncc3cc(C#N)c(N)nc32)ncc1-n1cc(C2CCC(CCN3[C@@H](C)CN(c4ccc(C5CCC(=O)NC5=O)cc4)C[C@@H]3C)CC2)nn1 (stereo partly shown) [P-223]
	15.9	C[C@H](C#N)Nc1cc(-n2ncc3cc(C#N)cnc32)ncc1-c1ncn(C2CCC(CCN3CCN(c4ccc(C5CCC(=O)NC5=O)cc4)CC3)CC2)n1 (stereo partly shown) [P-224]
	3.6	C[C@H](C#N)Nc1cc(-n2ncc3cnc(N)nc32)ncc1-n1cc(C2CCC(CCN3CCN(c4ccc([C@@]5(C)CCC(=O)NC5=O)cc4)CC3)CC2)nn1 (stereo partly shown) [P-228]
9		C[C@H](C#N)Nc1cc(-n2ncc3cnc(N)nc32)ncc1-n1cc([C@H]2CC[C@H](CCN3CCN(c4ccc([C@@]5(C)CCC(=O)NC5=O)cc4)CC3)CC2)nn1 [P-228]
	2.8	C[C@H](C#N)Nc1cc(-c2ccc3cc(C#N)cnn23)ncc1-n1cc(C2CCC(CCN3CCN(c4ccc([C@@]5(C)CCC(=O)NC5=O)cc4)CC3)CC2)nn1 (stereo partly shown) [P-230]
7		C[C@H](C#N)Nc1cc(-c2ccc3cc(C#N)cnn23)ncc1-n1cc([C@H]2CC[C@H](CCN3CCN(c4ccc([C@@]5(C)CCC(=O)NC5=O)cc4)CC3)CC2)nn1 [P-230]
	1.37	C[C@H](C#N)Nc1cc(-n2ncc3cnc(N)nc32)ncc1-n1cc(C2CCC(CCN3CCN(c4ccc(C5CCC(=O)NC5=O)cc4)CC3)CC2)nn1 (stereo partly shown) [P-231]
65	7.1	C[C@H]1CN(c2ccc([C@@]3(C)CCC(=O)NC3=O)cc2)C[C@H](C)N1CCC1CCC(c2cn(-c3cnc(-n4ncc5cc(C#N)cnc54)cc3NC3(C#N)CC3)nn2)CC1 (stereo partly shown) [P-232]
	2.8	C[C@H](C#N)Nc1cc(-n2ncc3cc(C#N)cnc32)ncc1-n1cc(C2CCC(CCN3CCC(c4ccc([C@@]5(C)CCC(=O)NC5=O)cc4)CC3)CC2)nn1 (stereo partly shown) [P-233]
8		C[C@H](C#N)Nc1cc(-n2ncc3cc(C#N)cnc32)ncc1-n1cc([C@H]2CC[C@H](CCN3CCC(c4ccc([C@@]5(C)CCC(=O)NC5=O)cc4)CC3)CC2)nn1 [P-233]
